Test results from ChEMBL document CHEMBL5325488, “Discovery of SMD-3040 as a Potent and Selective SMARCA2 PROTAC Degrader with Strong in vivo Antitumor Activity” (J Med Chem, 2023).

What was measured:
Format in all cases: cell-based
[1] = biological target: T1, von Hippel-Lindau disease tumor suppressor/SWI/SNF-related matrix-associated actin-dependent regulator of chromatin subfamily A member 4 (Homo sapiens, UniProt P51532+P40337); experiment: PROTAC activity at VHL/C-terminal HiBiT fused SMARCA4 in human HeLa cells assessed as induction of SMARCA4 degradation by measuring maximal efficacy incubated for 24 hrs by Nano-Glo HiBiT analysis relative to control
Target sequence in this assay (P40337 whole entry, looked up, the tested form may be a part): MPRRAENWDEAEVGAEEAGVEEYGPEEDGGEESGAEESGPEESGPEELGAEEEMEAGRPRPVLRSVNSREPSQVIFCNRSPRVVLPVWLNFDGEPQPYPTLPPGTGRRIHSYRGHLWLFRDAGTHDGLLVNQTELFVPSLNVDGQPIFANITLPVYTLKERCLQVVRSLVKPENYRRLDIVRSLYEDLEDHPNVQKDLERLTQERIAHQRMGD
Target sequence in this assay (P51532 whole entry, looked up, the tested form may be a part): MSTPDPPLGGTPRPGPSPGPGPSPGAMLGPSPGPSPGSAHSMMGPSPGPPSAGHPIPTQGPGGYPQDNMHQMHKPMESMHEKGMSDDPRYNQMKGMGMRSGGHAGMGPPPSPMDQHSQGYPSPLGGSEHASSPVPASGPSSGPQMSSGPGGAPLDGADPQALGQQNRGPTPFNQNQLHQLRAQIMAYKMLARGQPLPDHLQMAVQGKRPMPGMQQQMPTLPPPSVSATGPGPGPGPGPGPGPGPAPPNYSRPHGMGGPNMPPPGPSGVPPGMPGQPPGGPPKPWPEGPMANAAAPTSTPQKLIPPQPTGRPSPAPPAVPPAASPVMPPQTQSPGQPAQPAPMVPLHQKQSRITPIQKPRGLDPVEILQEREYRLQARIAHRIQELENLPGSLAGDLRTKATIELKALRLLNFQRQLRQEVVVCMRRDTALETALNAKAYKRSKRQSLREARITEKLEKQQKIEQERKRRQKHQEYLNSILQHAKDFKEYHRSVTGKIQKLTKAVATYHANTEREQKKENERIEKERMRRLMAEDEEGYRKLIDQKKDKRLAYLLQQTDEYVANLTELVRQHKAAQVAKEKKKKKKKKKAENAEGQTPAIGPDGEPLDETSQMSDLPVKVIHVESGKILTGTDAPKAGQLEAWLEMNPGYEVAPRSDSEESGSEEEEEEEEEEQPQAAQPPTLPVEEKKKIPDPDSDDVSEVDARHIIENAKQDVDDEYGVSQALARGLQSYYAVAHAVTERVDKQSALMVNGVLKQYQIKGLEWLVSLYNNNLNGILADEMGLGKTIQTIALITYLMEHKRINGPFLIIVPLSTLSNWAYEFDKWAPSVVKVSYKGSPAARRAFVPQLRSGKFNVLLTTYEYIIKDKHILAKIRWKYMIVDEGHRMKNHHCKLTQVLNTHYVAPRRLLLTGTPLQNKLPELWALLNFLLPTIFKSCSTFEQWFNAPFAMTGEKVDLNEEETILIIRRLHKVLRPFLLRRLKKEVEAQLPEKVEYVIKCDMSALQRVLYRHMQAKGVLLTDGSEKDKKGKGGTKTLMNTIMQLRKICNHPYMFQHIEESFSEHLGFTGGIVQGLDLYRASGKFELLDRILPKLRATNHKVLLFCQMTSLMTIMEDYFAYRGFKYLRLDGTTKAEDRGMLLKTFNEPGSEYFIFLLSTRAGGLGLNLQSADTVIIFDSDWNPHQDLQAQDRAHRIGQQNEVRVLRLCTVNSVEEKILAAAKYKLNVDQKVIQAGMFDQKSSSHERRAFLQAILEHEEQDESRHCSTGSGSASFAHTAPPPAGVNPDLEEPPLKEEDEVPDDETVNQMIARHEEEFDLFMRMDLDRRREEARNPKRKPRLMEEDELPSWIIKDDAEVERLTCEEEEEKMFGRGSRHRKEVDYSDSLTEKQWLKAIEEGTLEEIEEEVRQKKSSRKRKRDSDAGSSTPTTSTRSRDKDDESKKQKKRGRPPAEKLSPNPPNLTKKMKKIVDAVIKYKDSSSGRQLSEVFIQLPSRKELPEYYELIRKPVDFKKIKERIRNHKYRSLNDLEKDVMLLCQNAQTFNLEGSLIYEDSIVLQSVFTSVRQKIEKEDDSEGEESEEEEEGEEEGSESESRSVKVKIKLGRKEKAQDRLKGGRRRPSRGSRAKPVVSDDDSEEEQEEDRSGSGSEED

[2] = biological target: T2, von Hippel-Lindau disease tumor suppressor/SWI/SNF-related matrix-associated actin-dependent regulator of chromatin subfamily A member 2 (Homo sapiens, UniProt P51531+P40337); experiment: PROTAC activity at VHL/C-terminal HiBiT fused SMARCA2 in human HeLa cells assessed as induction of SMARCA2 degradation incubated for 24 hrs by Nano-Glo HiBiT analysis
Target sequence in this assay (P51531 whole entry, the tested form may be a part): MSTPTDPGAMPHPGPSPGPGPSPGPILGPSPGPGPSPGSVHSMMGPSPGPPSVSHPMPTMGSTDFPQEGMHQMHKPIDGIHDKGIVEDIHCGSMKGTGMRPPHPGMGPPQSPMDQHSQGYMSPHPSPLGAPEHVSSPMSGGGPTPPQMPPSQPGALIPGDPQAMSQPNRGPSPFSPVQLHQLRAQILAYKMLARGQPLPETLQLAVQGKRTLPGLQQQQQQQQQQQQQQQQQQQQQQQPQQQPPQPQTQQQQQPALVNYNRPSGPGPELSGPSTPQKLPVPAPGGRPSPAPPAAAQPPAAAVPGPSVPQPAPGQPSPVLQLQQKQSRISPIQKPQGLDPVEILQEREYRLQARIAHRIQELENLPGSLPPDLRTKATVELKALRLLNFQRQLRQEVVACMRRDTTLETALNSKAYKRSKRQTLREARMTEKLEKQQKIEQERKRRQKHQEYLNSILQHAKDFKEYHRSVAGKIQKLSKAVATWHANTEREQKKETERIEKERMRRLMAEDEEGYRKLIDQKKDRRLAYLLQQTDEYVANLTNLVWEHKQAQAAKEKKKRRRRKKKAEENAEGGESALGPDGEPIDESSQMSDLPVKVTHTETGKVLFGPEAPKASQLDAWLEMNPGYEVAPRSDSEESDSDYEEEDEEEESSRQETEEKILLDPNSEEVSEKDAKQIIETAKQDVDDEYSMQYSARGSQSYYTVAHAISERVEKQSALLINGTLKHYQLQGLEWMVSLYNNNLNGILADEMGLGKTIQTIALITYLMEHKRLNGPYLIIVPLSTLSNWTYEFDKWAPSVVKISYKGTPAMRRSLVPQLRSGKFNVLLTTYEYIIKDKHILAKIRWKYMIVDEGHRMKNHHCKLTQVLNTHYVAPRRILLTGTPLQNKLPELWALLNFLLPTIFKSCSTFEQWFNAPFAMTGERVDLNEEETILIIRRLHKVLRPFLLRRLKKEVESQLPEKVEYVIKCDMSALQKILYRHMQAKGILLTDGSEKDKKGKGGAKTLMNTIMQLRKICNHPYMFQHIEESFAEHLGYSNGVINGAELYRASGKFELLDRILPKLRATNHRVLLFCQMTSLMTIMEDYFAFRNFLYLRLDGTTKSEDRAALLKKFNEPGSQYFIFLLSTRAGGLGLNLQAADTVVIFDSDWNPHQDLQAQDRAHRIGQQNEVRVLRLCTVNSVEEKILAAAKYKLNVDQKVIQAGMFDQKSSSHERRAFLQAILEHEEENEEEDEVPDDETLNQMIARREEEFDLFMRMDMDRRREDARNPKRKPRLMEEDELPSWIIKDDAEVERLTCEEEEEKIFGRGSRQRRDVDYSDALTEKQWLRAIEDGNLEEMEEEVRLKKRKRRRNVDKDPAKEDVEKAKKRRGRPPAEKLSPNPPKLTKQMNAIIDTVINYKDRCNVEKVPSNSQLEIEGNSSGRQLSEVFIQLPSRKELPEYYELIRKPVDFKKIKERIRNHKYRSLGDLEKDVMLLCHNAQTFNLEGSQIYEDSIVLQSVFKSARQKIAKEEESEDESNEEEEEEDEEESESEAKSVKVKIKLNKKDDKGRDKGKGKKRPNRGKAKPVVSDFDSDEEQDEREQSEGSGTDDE
Target sequence in this assay (P40337 whole entry, the tested form may be a part): as the sequence (P40337 whole entry, looked up, the tested form may be a part) above

[3] = biological target: T1, von Hippel-Lindau disease tumor suppressor/SWI/SNF-related matrix-associated actin-dependent regulator of chromatin subfamily A member 4; experiment: PROTAC activity at VHL/C-terminal HiBiT fused SMARCA4 in human HeLa cells assessed as induction of SMARCA4 degradation incubated for 24 hrs by Nano-Glo HiBiT analysis
Target sequence in this assay (P51532 whole entry, the tested form may be a part): as the sequence (P51532 whole entry, looked up, the tested form may be a part) above
Target sequence in this assay (P40337 whole entry, the tested form may be a part): as the sequence (P40337 whole entry, looked up, the tested form may be a part) above

[4] = biological target: T2, von Hippel-Lindau disease tumor suppressor/SWI/SNF-related matrix-associated actin-dependent regulator of chromatin subfamily A member 2; experiment: PROTAC activity at VHL/C-terminal HiBiT fused SMARCA2 in human HeLa cells assessed as induction of SMARCA2 degradation by measuring maximal efficacy incubated for 24 hrs by Nano-Glo HiBiT analysis relative to control
Target sequence in this assay (P40337 whole entry, looked up, the tested form may be a part): as above
Target sequence in this assay (P51531 whole entry, looked up, the tested form may be a part): as the sequence (P51531 whole entry, the tested form may be a part) above

Emax [1] [%]	DC50 [2] [nM]	DC50 [3] [nM]	Emax [4] [%]	SMILES
47	455	> 1000	71	Cc1ncsc1-c1ccc([C@H](C)NC(=O)[C@@H]2C[C@@H](O)CN2C(=O)[C@@H](NC(=O)COCCOCCOCCn2cc(-c3cc(-c4ccccc4O)nnc3N)cn2)C(C)C)cc1
59	313	> 1000	77	Cc1ncsc1-c1ccc([C@H](C)NC(=O)[C@@H]2C[C@@H](O)CN2C(=O)[C@@H](NC(=O)CCOCCOCCn2cc(-c3cc(-c4ccccc4O)nnc3N)cn2)C(C)C)cc1
89	46	90	93	Cc1cc([C@H](C(=O)N2C[C@H](O)C[C@H]2C(=O)N[C@@H](CC(=O)NCCCCCCCCCCCCn2cc(-c3cc(-c4ccccc4O)nnc3N)cn2)c2ccc(-c3scnc3C)cc2)C(C)C)on1
96	3	13	95	Cc1ncsc1-c1ccc([C@H](C)NC(=O)[C@@H]2C[C@@H](O)CN2C(=O)[C@@H](NC(=O)CCCCCCCCCCCn2cc(-c3cc(-c4ccccc4O)nnc3N)cn2)C(C)(C)C)cc1
57	134	> 1000	85	Cc1ncsc1-c1ccc([C@H](C)NC(=O)[C@@H]2C[C@@H](O)CN2C(=O)[C@@H](NC(=O)CCCCn2cc(-c3cc(-c4ccccc4O)nnc3N)cn2)C(C)(C)C)cc1
84	132	463	88	Cc1ncsc1-c1ccc([C@H](C)NC(=O)[C@@H]2C[C@@H](O)CN2C(=O)[C@@H](NC(=O)CCCn2cc(-c3cc(-c4ccccc4O)nnc3N)cn2)C(C)(C)C)cc1
55	25	> 1000	85	Cc1ncsc1-c1ccc([C@H](C)NC(=O)[C@@H]2C[C@@H](O)CN2C(=O)[C@@H](NC(=O)C2CCC(N3CC4(CCC(n5cc(-c6cc(-c7ccccc7O)nnc6N)cn5)CC4)C3)CC2)C(C)(C)C)cc1 (some centres not stated)
81	16	212	89	Cc1ncsc1-c1ccc([C@H](C)NC(=O)[C@@H]2C[C@@H](O)CN2C(=O)[C@@H](NC(=O)CCCCCCn2cc(-c3cc(-c4ccccc4O)nnc3N)cn2)C(C)(C)C)cc1
94	71	75	94	Cc1cc([C@H](C(=O)N2C[C@H](O)C[C@H]2C(=O)N[C@@H](CC(=O)NCCCCCCCCCn2cc(-c3cc(-c4ccccc4O)nnc3N)cn2)c2ccc(-c3scnc3C)cc2)C(C)C)on1
72	34	315	90	Cc1ncsc1-c1ccc([C@@H](C)NC(=O)[C@H]2C[C@H](O)CN2C(=O)[C@H](NC(=O)C2CCC(N3CCC4(CCC(n5cc(-c6cc(-c7ccccc7O)nnc6N)cn5)CC4)CC3)CC2)C(C)(C)C)cc1 (single isomer, unassigned)
90	3	23	95	Cc1ncsc1-c1ccc([C@H](C)NC(=O)[C@@H]2C[C@@H](O)CN2C(=O)[C@@H](NC(=O)CCCCCCCn2cc(-c3cc(-c4ccccc4O)nnc3N)cn2)C(C)(C)C)cc1
73	12	> 1000	93	Cc1ncsc1-c1ccc([C@H](C)NC(=O)[C@@H]2C[C@@H](O)CN2C(=O)[C@@H](NC(=O)CCCCCn2cc(-c3cc(-c4ccccc4O)nnc3N)cn2)C(C)(C)C)cc1
76	682	585	62	Cc1ncsc1-c1ccc([C@H](C)NC(=O)[C@@H]2C[C@@H](O)CN2C(=O)[C@@H](NC(=O)CCN2CCN(CCCn3cc(-c4cc(-c5ccccc5O)nnc4N)cn3)CC2)C(C)C)cc1
84	18	213	86	Cc1cc([C@H](C(=O)N2C[C@H](O)C[C@H]2C(=O)N[C@@H](CC(=O)NCCCCCCn2cc(-c3cc(-c4ccccc4O)nnc3N)cn2)c2ccc(-c3scnc3C)cc2)C(C)C)on1
93	3	31	95	Cc1ncsc1-c1ccc([C@H](C)NC(=O)[C@@H]2C[C@@H](O)CN2C(=O)[C@@H](NC(=O)CCCCCCCCn2cc(-c3cc(-c4ccccc4O)nnc3N)cn2)C(C)(C)C)cc1
87	6	47	93	Cc1ncsc1-c1ccc([C@H](C)NC(=O)[C@@H]2C[C@@H](O)CN2C(=O)[C@@H](NC(=O)CCCCCCCCCCn2cc(-c3cc(-c4ccccc4O)nnc3N)cn2)C(C)(C)C)cc1
92	96	91	91	Cc1cc([C@H](C(=O)N2C[C@H](O)C[C@H]2C(=O)N[C@@H](CC(=O)NCCCCCCCn2cc(-c3cc(-c4ccccc4O)nnc3N)cn2)c2ccc(-c3scnc3C)cc2)C(C)C)on1
93	67	66	91	Cc1cc([C@H](C(=O)N2C[C@H](O)C[C@H]2C(=O)N[C@@H](CC(=O)NCCCCCCCCn2cc(-c3cc(-c4ccccc4O)nnc3N)cn2)c2ccc(-c3scnc3C)cc2)C(C)C)on1
0	> 1000	> 1000	19	Cc1ncsc1-c1ccc([C@H](C)NC(=O)[C@@H]2C[C@@H](O)CN2C(=O)[C@@H](NC(=O)CCn2cc(-c3cc(-c4ccccc4O)nnc3N)cn2)C(C)(C)C)cc1
93	37	53	95	Cc1cc([C@H](C(=O)N2C[C@H](O)C[C@H]2C(=O)N[C@@H](CC(=O)NCCCCCCCCCCn2cc(-c3cc(-c4ccccc4O)nnc3N)cn2)c2ccc(-c3scnc3C)cc2)C(C)C)on1
66	5	219	90	Cc1ncsc1-c1ccc([C@H](C)NC(=O)[C@@H]2C[C@@H](O)CN2C(=O)[C@@H](NC(=O)[C@H]2CC[C@H](CN3CCC4(CCC(n5cc(-c6cc(-c7ccccc7O)nnc6N)cn5)CC4)CC3)CC2)C(C)(C)C)cc1
77	6	248	94	Cc1ncsc1-c1ccc([C@H](C)NC(=O)[C@@H]2C[C@@H](O)CN2C(=O)[C@@H](NC(=O)CCCCCN2CCC(n3cc(-c4cc(-c5ccccc5O)nnc4N)cn3)CC2)C(C)(C)C)cc1
0	> 1000	> 1000	12	Cc1ncsc1-c1ccc([C@H](C)NC(=O)[C@@H]2C[C@@H](O)CN2C(=O)[C@@H](NC(=O)CCN2CCC(CCCn3cc(-c4cc(-c5ccccc5O)nnc4N)cn3)CC2)C(C)C)cc1
